Assays:
[1] = test system: BxPC3 pancreatic cancer cells; assay: Cell viability (MTT), BxPC3; format: cell-based; conditions: Homo sapiens, BXPC-3; BxPC3, 72 hours; read-out: IC50 of INT2-31, cell viability
Protocol: (§1) Cell viability (MTT) and CFSE Proliferation assay: Cells were plated in 96-well plates and let adhere overnight. After cell treatment, cell viability was measured by 3-(4,5-dimethylthiazol-2-yl)-2,5-diphenyl tetrazolium bromide (MTT) assay (CellTiter 96® Aqueous, Promega, Madison, Wis.).
(§2) Cell viability and detachment assays: After cells were treated with siRNA transfection, cell viability was measured by 3-(4,5-dimethylthiazol2-yl)-2,5-diphenyl tetrazolium bromide (MTT) assay (CellTiter 96® AQueous, Promega, Madison, Wis.). Briefly, 20 μl of the tetrazolium compound was added to each well. The cells were then incubated at 37° C. for 1 h. The plate was read at 490 nm with a plate reader to determine the viability. In detachment assays, detached and attached cells were harvested separately and counted in a hemocytometer. The percentage of detachment was calculated by dividing the number of detached cells by the total number of cells. Apoptosis assays: After treatment, attached and detached cells were collected, counted and prepared for terminal uridine deoxynucleotidyl transferase (TUNEL) assay by utilizing an APO-BRDU kit (BD Pharmingen, San Diego, Calif.) according to the manufacturer's instructions. Stained cells were analyzed with a fluorescence-activated cell sorting-Calibur flow cytometer (BD Biosciences). […] Apoptotic cells were also analyzed by Hoechst staining. […]

[2] = test system: TE9 esophageal cancer cells; assay: Cell viability (MTT), TE9; format: cell-based; conditions: TE9, 72 hours; read-out: IC50 of INT2-31, cell viability
Protocol: as §1, §2

C8161 melanoma cells = assay: CFSE cell proliferation assay, C8161; format: cell-based, human; conditions: effect greater than in A375
Protocol: For staining with CFSE (Molecular Probes, Eugene, Oreg.)., 1×10^7/ml cells were suspended in PBS and incubated at 37° C. for 5 min with the 10 μM of CFSE. Stained cells were cultured with medium alone or with inhibitor for 24, 48, and 72 hours, fixed and analyzed by a FACS Calibur cytometer (Becton Dickinson, San Jose, Calif.).

[3] = Previous toxicity testing at 50 mg/kg/day; format: in vivo, mice; conditions: 50 mg/kg/day i.p.
[4] = test system: insulin receptor, VEGFR-1, AKT-1, EGFR, VEGFR-2, c-MET, PDGFRa, p70S6K, Src and PI3Kinase; assay: Kinase profiler screening, other protein kinases; format: biochemical; conditions: 1 μM compound
Protocol: (§3) Kinase Profiler Screening: Kinase specificity screening was performed with Invitrogen's SelectScreen® Kinase Profiling Services http://www.invitrogen.com/site/us/en/home/Products-and-Services/Services/Discoverv-Research/SelectScreen-Profiling-Service/SelectScreen-Kinase-Profiling-Service.html. The screening was performed with 1 μM compound, INT2-31, 10 μM ATP, and kinase substrates against ten recombinant kinases according to Z′-LYTET™ Kinase Assay. For PI3 kinase activity, 100 μM ATP, and kinase substrate were utilized with the Invitrogen Adapta® Universal Kinase Assay protocol. Tumor Growth in Nude Mice in vivo: Six week old athymic, female nude mice were purchased from Harlan Laboratory. The mice were maintained in the animal facility, and all experiments were performed in compliance with NIH animal-use guidelines and under an IACUC approved protocol. Melanoma cells were injected, 5×10^6 cells, subcutaneously. When the tumor size reached 100 mm^3, the INT2-31 was introduced by intraperitoneal injection at a dose of 15 mg/kg daily for 21 days. Tumor diameters were measured with calipers, and tumor volume in mm^3 was calculated using the formula [(width)^2×length]/2. At the end of experiment, tumor weight and volume were determined.

[5] = test system: TE7 esophageal cancer cells; assay: Cell viability (MTT), TE7; format: cell-based; conditions: TE7, 72 hours; read-out: IC50 of INT2-31, cell viability
Protocol: as §1, §2

A375 subcutaneous tumor = assay: A375 melanoma xenograft in nude mice; format: in vivo; conditions: A375, 15 mg/kg daily intraperitoneal, 21 days, p<0.05
Protocol: as §3, with “Melanoma cells were injected, 5×10^6 cells, subcutaneously. When the tumor size reached 100 mm^3, the INT2-31 was introduced by intraperitoneal injection at a dose of 15 mg/kg daily for 21 days.” left out
For the melanoma study, the University of Florida IACUC approved the following protocol (IACUC Study #200801077). […] Tumor diameters were measured with calipers, and tumor volume in mm^3 was calculated using the formula [(width)^2×length]/2. At the end of experiment, tumor weight and volume were determined.

SK-MEL-28 melanoma cells = assay: Cell viability (MTT), SK-MEL-28; format: cell-based; conditions: Homo sapiens; SK-MEL-28, 72 hours; read-out: IC50 of INT2-31, cell viability
Protocol: as §1, §2

A375 melanoma cells = assay: Cell viability (MTT), A375; format: cell-based, human
Protocol: as §1
Cell viability and detachment assays: After cells were treated with siRNA transfection, cell viability was measured by 3-(4,5-dimethylthiazol2-yl)-2,5-diphenyl tetrazolium bromide (MTT) assay (CellTiter 96® AQueous, Promega, Madison, Wis.). Briefly, 20 μl of the tetrazolium compound was added to each well. The cells were then incubated at 37° C. for 1 h. The plate was read at 490 nm with a plate reader to determine the viability. In detachment assays, detached and attached cells were harvested separately and counted in a hemocytometer. The percentage of detachment was calculated by dividing the number of detached cells by the total number of cells. Apoptosis assays: After treatment, attached and detached cells were collected, counted and prepared for terminal uridine deoxynucleotidyl transferase (TUNEL) assay by utilizing an APO-BRDU kit (BD Pharmingen, San Diego, Calif.) according to the manufacturer's instructions. Stained cells were analyzed with a fluorescence-activated cell sorting-Calibur flow cytometer (BD Biosciences). Calculation of the percentage of apoptotic cells in the sample was completed with CellQuest software (BD Biosciences). Apoptotic cells were also analyzed by Hoechst staining. Hoechst 33342 ([…]) was added to the fixed cells and the specimens were mounted on glass coverslips. The slides were viewed under the Zeiss microscope for apoptotic nuclei. The percent of apoptotic cells was calculated as the ratio of apoptotic cells to total number of cells.
In addition, the effect of INT2-31 on cell viability of esophageal, pancreatic and breast cancer cell lines was analyzed and the IC50 value for each cell line was determined, as shown in Table 1. […] Similar to melanoma results, INT2-31 inhibits viability more in cancer cells compared to normal cells. […]

Compound: CSc1ncnc2c1ccn2C1O[C@H](COP(=O)(O)O)[C@@H](O)[C@H]1O (stereo partly drawn) [INT2-31, 4-(Methylthio)-7-(5-O-phosphono-D-ribofuranosyl)-{7H-Pyrrolo[2,3-d]pyrimidine}]
- IC50 [1]: 45.6 µM
- IC50 [2]: 3.6 µM
- cell proliferation (CSFE) (C8161 melanoma cells): inhibited cell proliferation
- toxicity [3]: no measurable toxicity
- inhibition of any of the other protein kinases [4]: ≤ 22%
- IC50 [5]: 3.2 µM
- subcutaneous tumor growth compared to PBS control (A375 subcutaneous tumor): significant decrease
- IC50 (SK-MEL-28 melanoma cells): 22.1 µM
- cell viability (in words) (A375 melanoma cells; A375, MTT): inhibited cell viability in a dose-dependent manner
- IC50 (A375 melanoma cells; Homo sapiens, A-375, A375, 72 hours, read-out: IC50 of INT2-31, cell viability): 2.7 µM
